From patent US8815919B2, “Oxadiazole derivatives” (Merck Serono SA, priority 2009, dated 2014)
Where a name gives a salt, the structure may show the parent alone. Read-outs that look alike come from different tables or passages of the source.

Key:
[1] = molecular target: T1, S1P1 (Homo sapiens, UniProt P21453); experiment: 35S-GTPγS binding on membranes of CHO cells expressing S1P1; assay type: biochemical; settings: read-out: S1P1/GTPG EC50
Description: (§1) Membranes were prepared from CHO cells expressing S1P1 or S1P3 for use in ligand and […] binding studies. Cells were suspended in 50 mM TRIS, pH 7.4, 2 mM EDTA, 250 mM Sucrose (buffer A) and 1× Complete protease inhibitor cocktail (Roche), and disrupted at 4° C. by N2 decompression using a cell disruption bomb (Parr Instrument). Following centrifugation at 1000 RPM for 10 min at 4° C., the supernatant was diluted (2×) in buffer A and centrifuged again at 19000 RPM for 75 min at 4° C. The pellet was then suspended in 10 mM HEPES, pH 7.4, 1 mM EDTA, 250 mM Sucrose (Buffer B), and 1× Complete EDTA-free protease inhibitor cocktail and homogenized using a potter. Membranes were flash frozen in liquid N2 and stored at −80° C.
(§2) Membranes (1 to 10 μg protein) prepared as described above, were incubated in 96-well Scintiplates (PerkinElmer) with test compounds diluted in DMSO, in 140 μl of 20 mM HEPES, pH 7.4, 10 mM MgCl2, 2 μg/well Saponin, 0.2% fatty acid free BSA (Assay buffer), 125 mM NaCl and 1.5 μM GDP. The assay was initiated with the addition of 60 μl of 1.5 nM [35S]-GTPγS (1100 Ci/mmol; GE Healthcare) in assay buffer. After 60 min incubation at 30° C. on a shaker, plates were centrifuged for 10 min at 2000 RPM. Supernatant was discarded and membrane bound radioactivity was measured on a PerkinElmer 1450 MicroBeta counter. Triplicate samples were averaged and expressed as % response relative to S1P activation in absence of compound (n=2).
(§3) The “potency” or the “activity” of the compounds is determined by the EC50 values as evaluated in the above described 35S-GTPγS binding assay.
Target sequence in this assay (P21453 whole entry, species assumed): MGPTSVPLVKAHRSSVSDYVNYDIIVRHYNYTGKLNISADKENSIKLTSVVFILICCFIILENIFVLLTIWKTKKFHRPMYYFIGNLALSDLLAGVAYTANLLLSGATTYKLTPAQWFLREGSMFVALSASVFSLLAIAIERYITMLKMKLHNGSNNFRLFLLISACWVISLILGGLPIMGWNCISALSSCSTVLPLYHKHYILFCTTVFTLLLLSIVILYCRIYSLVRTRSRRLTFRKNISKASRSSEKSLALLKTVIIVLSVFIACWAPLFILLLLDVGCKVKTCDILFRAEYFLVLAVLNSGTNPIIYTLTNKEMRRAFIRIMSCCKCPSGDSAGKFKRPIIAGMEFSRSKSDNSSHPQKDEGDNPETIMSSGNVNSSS

[2] = molecular target: T2, S1P3 (Homo sapiens, UniProt Q99500); experiment: 35S-GTPγS binding on membranes of CHO cells expressing S1P3; assay type: biochemical; settings: read-out: S1P3/GTPG EC50
Description: as §1, §2, §3

[3] = molecular target: T1, S1P1; experiment: Receptor binding assay, [33P]sphingosine 1-phosphate competition, S1P1 membranes, WGA SPA beads
How it was run: (§4)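 Competition of [33P]S1P ([…]) on CHO cell membranes with WGA SPA beads in 50 mM HEPES pH 7.5, 5 mM MgCl2, 100 mM NaCl, 0.4% fatty acid-free BSA; 60 min at RT. Triplicates normalised to total binding and nonspecific binding (1000-fold excess unlabeled S1P).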
Target sequence in this assay (P21453 whole entry, species assumed): as above

[4] = molecular target: T1, S1P1; experiment: S1P1 internalization assay in S1P1-U2OS cells (S1P1-EGFP), cell imaging; assay type: cell-based; design: host or cells: U2OS (human bone osteosarcoma epithelial cells), CMV promoter, geneticin selection; settings: 1 hour incubation
How it was run: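 U2OS cells stably expressing human S1P1-EGFP, plated overnight in 1% FCS medium, then serum-starved 2 h in 0.1% fatty-acid-free BSA before 1 h compound exposure at 37 °C. After PFA fixation and Hoechst staining, internalization imaged as EGFP spot count per nucleus.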
Target sequence in this assay (P21453 whole entry): as the sequence (P21453 whole entry, species assumed) above

[5] = molecular target: T2, S1P3; experiment: Receptor binding assay, [33P]sphingosine 1-phosphate competition, S1P3 membranes, WGA SPA beads
How it was run: as §4

[6] = 96 well-plate, read-out: S1P1 binding Ki (M) (96 well-plate)
[7] = 384 well-plate, read-out: S1P3 binding Ki (M) (384 well-plate)

T2 sequence (Q99500 whole entry, species assumed): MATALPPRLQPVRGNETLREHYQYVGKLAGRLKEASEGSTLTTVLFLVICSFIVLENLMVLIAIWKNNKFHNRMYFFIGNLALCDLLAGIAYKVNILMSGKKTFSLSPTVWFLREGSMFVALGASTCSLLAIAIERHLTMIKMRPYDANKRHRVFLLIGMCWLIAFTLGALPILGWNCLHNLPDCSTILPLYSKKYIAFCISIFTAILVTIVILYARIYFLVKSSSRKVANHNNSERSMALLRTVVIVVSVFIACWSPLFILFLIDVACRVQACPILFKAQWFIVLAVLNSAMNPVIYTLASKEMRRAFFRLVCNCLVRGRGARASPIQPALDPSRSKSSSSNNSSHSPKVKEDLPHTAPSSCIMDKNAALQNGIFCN

Row | Compound | EC50 [1] [nM] | EC50 [2] [nM] | Ki [3, 6] [M] | EC50 [4] [nM] | Ki [5, 7] [M] | Ki ([3]; 384 well-plate, read-out: S1P1 binding Ki (M) (384 well-plate)) | Ki ([5]; 96 well-plate, read-out: S1P3 binding Ki (M) (96 well-plate))
1 | COCc1cc(-c2nc(-c3cccc(CN(C)CCC(=O)O)c3)no2)ccc1N1CCCCC1C (stereo not drawn) [Example 2, N-(3-{5-[3-(methoxymethyl)-4-(2-methylpiperidin-1-yl)phenyl]-1,2,4-oxadiazol-3-yl}benzyl)-N-methyl-beta-alanine, hydrochloride salt] | 0.287 | 44.8 | 1.36e-10 | – | – | – | –
2 | COCc1cc(-c2nc(-c3ccc(C(=O)NCCC(=O)O)c(F)c3)no2)ccc1N1CCCCC1C (stereo not drawn) [Example 3, N-(2-fluoro-4-{5-[3-(methoxymethyl)-4-(2-methylpiperidin-1-yl)phenyl]-1,2,4-oxadiazol-3-yl}benzoyl)-beta-alanine] | 8.43 | – | 8.32e-10 | 7.76 | – | – | –
3 | COCc1cc(-c2nc(-c3cccc(COCC(=O)O)c3)no2)ccc1N1CCCCC1C (stereo not drawn) [Example 4, [(3-{5-[3-(methoxymethyl)-4-(2-methylpiperidin-1-yl)phenyl]-1,2,4-oxadiazol-3-yl}benzyl)oxy]acetic acid, hydrochloride salt] | 1.05 | 313 | 4.76e-10 | – | 7.53e-07 | – | –
4 | COCc1cc(-c2nc(-c3cc(F)c(F)c(OCCCC(=O)O)c3)no2)ccc1-c1ccccc1C [Example 5, 4-(2,3-difluoro-5-{5-[2-(methoxymethyl)-2′-methylbiphenyl-4-yl]-1,2,4-oxadiazol-3-yl}phenoxy)butanoic acid] | 22.7 | – | 4.09e-09 | 157 | – | 1.45e-08 | –
5 | COCc1cc(-c2nc(-c3cccc(S(C)(=O)=O)c3)no2)ccc1N1CCCCC1C (stereo not drawn) [Example 6, 1-(2-(methoxymethyl)-4-{3-[3-(methylsulfonyl)phenyl]-1,2,4-oxadiazol-5-yl}phenyl)-2-methylpiperidine, hydrochloride salt] | 1.9 | 2280 | 1.24e-09 | 4.39 | – | – | –
6 | COCc1cc(-c2nc(-c3cccc(COCCC(=O)O)c3)no2)ccc1-c1ccccc1C [Example 7, 3-[(3-{5-[2-(methoxymethyl)-2′-methylbiphenyl-4-yl]-1,2,4-oxadiazol-3-yl}benzyl)oxy]propanoic acid] | 8.05 | 2010 | 3.29e-09 | 25.5 | – | – | –
7 | Cc1ccccc1-c1ccc(-c2nc(-c3cccc(S(C)(=O)=O)c3)no2)cc1CN(C)C [Example 8, N,N-dimethyl-1-(2′-methyl-4-{3-[3-(methylsulfonyl)phenyl]-1,2,4-oxadiazol-5-yl}biphenyl-2-yl)methanamine] | 11.7 | – | – | – | – | – | –
8 | COCc1cc(-c2nc(-c3cccc(COCCC(=O)O)c3)no2)ccc1N1CCCCC1C (stereo not drawn) [Example 9, 3-[4(3-{5-[3-(methoxymethyl)-4-(2-methylpiperidin-1-yl)phenyl]-1,2,4-oxadiazol-3-yl}benzyl)oxy]propanoic acid, hydrochloride salt] | 3.85 | – | 8.04e-10 | – | – | – | –
9 | COCc1cc(-c2nc(-c3cccc(CN(C)CC(=O)O)c3)no2)ccc1-c1ccccc1F [Example 10, N-(3-{5-[2′-fluoro-2-(methoxymethyl)biphenyl-4-yl]-1,2,4-oxadiazol-3-yl}benzyl)-N-methylolycine, hydrochloride salt] | 0.907 | 130 | 1.79e-10 | 3.31 | 1.22e-07 | – | 2.33e-08
10 | COCc1cc(-c2nc(-c3cccc(CN(C)CC(=O)O)c3)no2)ccc1-c1ccccc1Cl [Example 11, N-(3-{5-[2′-chloro-2-(methoxymethyl)biphenyl-4-yl]-1,2,4-oxadiazol-3-yl}benzyl)-N-methylglycine, hydrochloride salt] | 2.74 | 673 | 6.21e-10 | 10.6 | – | – | –
11 | CC1CCCCN1c1ccc(-c2nc(-c3cccc(COCCC(=O)O)c3)no2)cc1C(F)(F)F (stereo not drawn) [Example 12, 3-[(3-{5-[4-(2-methylpiperidin-1-yl)-3-(trifluoromethyl)phenyl]-1,2,4-oxadiazol-3-yl}benzyl)oxy]propanoic acid, hydrochloride salt] | 4.61 | 692 | 3.08e-09 | 9.84 | – | – | –
12 | COCc1cc(-c2nc(-c3ccc(C(=O)NCCC(=O)O)c(Cl)c3)no2)ccc1-c1ccccc1C [Example 15, N-(2-chloro-4-{5-[2-(methoxymethyl)-2′-methylbiphenyl-4-yl]-1,2,4-oxadiazol-3-yl}benzoyl)-beta-alanine] | 20.9 | 553 | 1.06e-09 | – | – | – | –
13 | CCc1ccccc1-c1ccc(-c2nc(-c3ccc(C(=O)NCCC(=O)O)c(F)c3)no2)cc1COC [Example 16, N-(4-{5-[2′-ethyl-2-(methoxymethyl)biphenyl-4-yl]-1,2,4-oxadiazol-3-yl}-2-fluorobenzoyl)-beta-alanine] | 6.07 | 531 | 2.22e-09 | – | – | – | –
14 | CCC1CCCCN1c1ccc(-c2nc(-c3cccc(CN(C)CC(=O)O)c3)no2)cc1COC (stereo not drawn) [Example 17, N-(3-{5-[4-(2-ethylpiperidin-1-yl)-3-(methoxymethyl)phenyl]-1,2,4-oxadiazol-3-yl}benzyl)-N-methylglycine, hydrochloride salt] | 1.41 | 255 | 4.46e-10 | – | – | – | –
15 | CCc1ccccc1-c1ccc(-c2nc(-c3cccc(CNCCC(=O)O)c3)no2)cc1COC [Example 18, N-(3-{5-[2′-ethyl-2-(methoxymethyl)biphenyl-4-yl]-1,2,4-oxadiazol-3-yl}benzyl)-beta-alanine, hydrochloride salt] | 0.47 | 4.96 | 1.68e-10 | – | – | – | –
16 | COCc1cc(-c2nc(-c3ccc(F)c(CN(C)CCC(=O)O)c3)no2)ccc1N1CCCCC1C (stereo not drawn) [Example 19, N-(2-fluoro-5-{5-[3-(methoxymethyl)-4-(2-methylpiperidin-1-yl)phenyl]-1,2,4-oxadiazol-3-yl}benzyl)-N-methyl-beta-alanine, dihydrochloride salt] | 0.545 | 34.4 | 1.94e-10 | – | – | – | –
17 | COCc1cc(-c2nc(-c3cccc(NCC(O)CO)c3)no2)ccc1-c1ccccc1C (stereo not drawn) [Example 22, 3-[(3-{5-[2-(methoxymethyl)-2′-methylbiphenyl-4-yl]-1,2,4-oxadiazol-3-yl}phenyl)amino]propane-1,2-diol] | – | 293 | 7.11e-10 | – | – | – | –
18 | COCc1cc(-c2nc(-c3ccc(OCCO)cc3)no2)ccc1-c1ccccc1C [Example 23, 2-(4-{5-[2-(methoxymethyl)-2′-methylbiphenyl-4-yl]-1,2,4-oxadiazol-3-yl}phenoxy)ethanol] | 7.07 | 199 | 2.17e-09 | – | – | – | –
19 | COCc1cc(-c2nc(-c3cccc(CC(=O)NCC(=O)OC)c3)no2)ccc1-c1ccccc1C [Example 24, methyl N-[(3-{5-[2-(methoxymethyl)-2′-methylbiphenyl-4-yl]-1,2,4-oxadiazol-3-yl}phenyl)acetyl]glycinate] | 2.11 | – | 9.12e-10 | – | – | – | –
20 | COCc1cc(-c2nc(-c3cccc(CC(=O)NCCNC(C)=O)c3)no2)ccc1-c1ccccc1C [Example 25, N-[2-(acetylamino)ethyl]-2-(3-{5-[2-(methoxymethyl)-2′-methylbiphenyl-4-yl]-1,2,4-oxadiazol-3-yl}phenyl)acetamide] | 7.08 | 635 | 8.51e-10 | – | – | – | –
21 | COCc1cc(-c2nc(-c3cccc(CC(=O)NCC(=O)O)c3)no2)ccc1-c1ccccc1C [Example 26, N-[(3-{5-[2-(methoxymethyl)-2′-methylbiphenyl-4-yl]-1,2,4-oxadiazol-3-yl}phenyl)acetyl]glycine] | 10.7 | – | – | – | – | – | –
22 | COCc1cc(-c2nc(-c3ccc(C(=O)NCC(O)CO)c(F)c3)no2)ccc1-c1ccccc1C (stereo not drawn) [Example 27, N-(2,3-dihydroxypropyl)-2-fluoro-4-{5-[2-(methoxymethyl)-2′-methylbiphenyl-4-yl]-1,2,4-oxadiazol-3-yl}benzamide] | 17.8 | – | – | – | – | – | –
